Data reported in patent US7348357B2, “Arylamides” (Bayer HealthCare AG, priority 2002, dated 2008).
Converted amounts (≈) assume the structure as drawn.

Legend:
[1] = tested on: Staphylococcus aureus 133; assay: Minimum inhibitory concentration (MIC), liquid dilution test; format: cell-based; conditions: Isosensitest medium, 10^5 organisms per ml, 37° C., 18-24 hours, lowest concentration with no visible bacterial growth
Description: (§1) Determination of the Minimum Inhibitory Concentration (MIC): The MIC is determined in a liquid dilution test. Overnight cultures of the test organisms are diluted to a cell count of 10^5 organisms per ml in Isosensitest medium (Difco, Irvine, USA) and are incubated with dilutions of the test substances (1:2 dilution stages). Exceptions are the tests with S. pneumoniae […], which are conducted in BHI broth (Difco) plus 20% bovine serum, and with H. influenzae, which are conducted in BHI broth (Difco) plus 20% bovine serum, 10 μg/ml hemin and 1% Isovitale (Becton Dickinson, New Jersey, USA). The cultures are incubated at 37° C. for 18-24 hours; S. pneumoniae and H. influenzae in the presence of 8-10% CO2. The lowest concentration of each substance at which there is no longer any visible bacterial growth is defined as the MIC. The MICs in μmol/l of some compounds of the invention against a series of test organisms are listed by way of example in the table below.

[2] = tested on: Haemophilus influenzae Spain 7; assay: as above; format: cell-based; conditions: BHI broth plus 20% bovine serum, 10 μg/ml hemin and 1% Isovitale, 37° C., 18-24 hours, 8-10% CO2, lowest concentration with no visible bacterial growth
Description: as §1

bacteria = conditions: described in the literature (J. Am. Chem. Soc. 1987, J. Org. Chem. 1994, J. Antibiot. 1997); cited from earlier work

Structure (SMILES)	MIC [1] [µM]	MIC Haemophilus influenzae Spain 7 [2] [µM]	antibacterial activity (bacteria)
CC(C)[C@H](NC(=O)C[C@H](NC(=O)c1cccc(F)n1)c1ccccc1)C(=O)[C@@H]1C(=O)NC(=O)[C@H]1C [Example 2, 6-Fluoro-N-{(1S)-3-[((1S)-2-methyl-1-{[(3R,4S)-4-methyl-2,5-dioxo-3-pyrrolidinyl]-carbonyl}propyl)amino]-3-oxo-1-phenylpropyl}-2-pyridinecarboxamide]	15.6 (≈ 7.54 µg/mL)	7.81	–
C/C=C/C=C/C=C/C(=O)N[C@@H](CC(=O)N[C@H](C(=O)[C@@H]1C(=O)NC(=O)[C@H]1C)C(C)C)c1ccccc1 [andrimid]	–	–	having antibacterial activity
C/C=C/C=C/C(=O)N[C@@H](CC(=O)N[C@H](C(=O)[C@@H]1C(=O)NC(=O)[C@H]1C)C(C)C)c1ccccc1 [moiramide B]	–	–	having antibacterial activity
C/C=C/C=C/C=C/C(=O)N[C@@H](CC(=O)N[C@H](C(=O)[C@@]1(O)C(=O)NC(=O)[C@H]1C)C(C)C)c1ccccc1 [moiramide C]	–	–	inactive

Now from value to molecule, other results behind:

MIC [1] [µM]	MIC Haemophilus influenzae Spain 7 [2] [µM]	Structure (SMILES)	antibacterial activity (bacteria)
7.81 (≈ 4.22 µg/mL)	15.63	CC(C)[C@H](NC(=O)C[C@H](NC(=O)c1cc(-c2ccccc2)ccn1)c1ccccc1)C(=O)[C@@H]1C(=O)NC(=O)[C@H]1C [Example 6, N-{(1S)-3-[((1S)-2-Methyl-1-{[(3R,4S)4-methyl-2,5-dioxo-3-pyrrolidinyl]-carbonyl}propyl)amino]-3-oxo-1-phenylpropyl}-4-phenyl-2-pyridinecarboxamide]	–
7.81 (≈ 3.83 µg/mL)	62.5	C[C@@H]1C(=O)NC(=O)[C@H]1C(=O)C(NC(=O)C[C@H](NC(=O)c1ccccn1)c1ccccc1)C1CCCC1 (stereo partly drawn) [Example 9, N-[(1S)-3-({1-Cyclopentyl-2-[(3R,4S)-4-methyl-2,5-dioxo-3-pyrrolidinyl]-2-oxoethyl}amino)-3-oxo-1-phenylpropyl]-2-pyridinecarboxamide]	–
0.98 (≈ 0.536 µg/mL)	15.63	C[C@@H]1C(=O)NC(=O)[C@H]1C(=O)[C@@H](NC(=O)C[C@H](NC(=O)c1cc2cc(F)ccc2[nH]1)c1ccccc1)C1CCCC1 [Example 48, N-[(1S)-3-({(1S)-1-Cyclopentyl-2-[(3R,4S)4-methyl-2,5-dioxo-3-pyrrolidinyl]-2-oxoethyl}amino)-3-oxo-1-phenylpropyl]-5-fluoro-1 H-indole-2-carboxamide]	–
0.98 (≈ 0.565 µg/mL)	62.5	COc1ccc(CC(=O)N[C@@H](CC(=O)N[C@H](C(=O)[C@@H]2C(=O)NC(=O)[C@H]2C)C(C)C)c2ccccc2)c(Cl)c1Cl [Example 109]	–
